# In patent publication US6255502A, “Pharmaceutical composition containing acid addition salt of basic drug” (Farmarc Nederland B.V., priority 1996, dated 2001):
# What was measured:
# [1] = cited from earlier work
# [2] = Partition coefficient and apparent partition coefficient, n-octanol / phosphate buffer pH 7.4 at 25° C.; assay type: physicochemical; details: n-octanol / phosphate buffer pH 7.4, 25° C.; for Partition Coefficient: P = Co/Cw; for Apparent Partition Coefficient: Papp=P/(1+10^pKa-pH)
# Description: Melting points (peak onset temperature) were determined by Differential Scanning Calorimetry using a Perkin Elmer DSC 7. The saturation solubilities were determined by shaking an excess of the compound in phosphate buffer pH 7.4 at 25° C. […] Pharmaceutical Press p70]:
# where P=Co /Cw and where Co is the concentration of the drug in n-octanol and Cw is the concentration of the drug in phosphate buffer pH 7.4 at 25° C. Drug concentrations were determined by HPLC.
# [3] = Aqueous solubility (stated in the Examples); assay type: physicochemical; details: aqueous solution
# [4] = providing an appropriate pH gradient existed; cited from earlier work
# [5] = dogs, sustained-release oral formulation study; cited from earlier work
# [6] = by forming a complex with a fatty acid; cited from earlier work
# [7] = Deliquescence of precipitate on standing; assay type: physicochemical
# [8] = Thermal decomposition seen in differential scanning calorimetry; assay type: physicochemical; details: DSC from 50 to 200° C.
# Description: Salbutamol base (1.2007 g; 5.02 mmol) was dissolved in ethanol (100 mL) with vigorous stirring. Glycodeoxycholic acid (2.4601 g; water content: 4.25% w/w; 5.25 mmol~5% molar excess) was added and dissolved with stirring. A clear, colourless solution was obtained. The ethanol was removed by vacuum rotary-evaporation to give a viscous, yellow residue. Ethyl acetate (200 mL) was added to the residue and the mixture heated in a water bath with constant agitation. As the yellow residue dissolved, a white precipitate formed. Agitation was continued until the yellow residue disappeared. The ethyl acetate solution was cooled in an ice bath. […] Analysis by differential scanning calorimetry from 50 to 200° C. gave no significant thermal event. Slow decomposition was evident after 110° C.
structure (smiles),measurement,setting,value
CCCCCCCCCCCC(=O)[O-].[Na+] [sodium laurate],effect on rat nasal absorption of insulin,[1],promoting effect
CC(C)(C)NCC(O)c1ccc(O)c(CO)c1 (stereo not drawn) [Salbutamol caprate],Partition Coefficient,[2],"0,54"
same,Apparent Partition Coefficient,[2],"0,006714"
same,solubility,[3]; water,4760 µg/mL
CCCCCCCCCC(=O)[O-].[Na+] [sodium caprate],effect on rat nasal absorption of insulin,[1],promoting effect
CNS(=O)(=O)Cc1ccc2[nH]cc(CCN(C)C)c2c1 [Sumatriptan base],Partition Coefficient,[2],"0,69"
same,Apparent Partition Coefficient,[2],"0,004039"
CCCCCCCCCCCC(=O)O [lauric acid],Transport of cations across an iso-Pr myristate membrane,[4],facilitated
"CNS(=O)(=O)Cc1ccc2[nH]cc(CCN(C)C)c2c1 [Sumatriptan caprate, sumatriptan caprate]",Partition Coefficient,[2],"1,54"
same,Apparent Partition Coefficient,[2],0.009015
CCCCCCCC/C=C\CCCCCCCC(=O)O [oleic acid],Transport of cations across an iso-Pr myristate membrane,[4],facilitated
CCCCCCCC(=O)[O-].[Na+] [sodium caprylate],effect on rat nasal absorption of insulin,[1],promoting effect
CC(C)NCC(O)COc1cccc2ccccc12 (stereo not drawn) [propranolol laurate],bioavailability,[5],An increase in bioavailability was observed
CC(C)(C)NCC(O)c1ccc(O)c(CO)c1 (stereo not drawn) [Salbutamol base],Partition Coefficient,[2],"0,42"
same,Apparent Partition Coefficient,[2],0.005222
CC(C)NCC(O)COc1cccc2ccccc12 (stereo not drawn) [propranolol],Penetration across the stratum corneum,[6],a significant proportion of propranolol will penetrate across the stratum corneum
"COc1ccc2c3c1O[C@H]1[C@@H](O)C=C[C@H]4[C@@H](C2)N(C)CC[C@@]341 [Codeine caprate, codeine caprate]",Deliquescence,[7],very deliquescent
"CC(C)(C)NCC(O)c1ccc(O)c(CO)c1 (stereo not drawn) [Salbutamol glycodeoxycholate, salbutamol glycodeoxycholate]",Partition Coefficient,[2],"0,61"
same,Apparent Partition Coefficient,[2],"0,007584"
same,Slow decomposition evident after,[8],> 110 °C
same,Aqueous solubility,[3],greater than 8.35 mg/mL
